In paper PMC8718961, “The CbbQO-type rubisco activases encoded in carboxysome gene clusters can activate carboxysomal form IA rubiscos” (The Journal of Biological Chemistry, 2021):

What was measured:
[1] = molecular target: T1, AfL2S2 (form IA^C carboxysomal rubisco) (Acidithiobacillus ferrooxidans, UniProt B7JB30); assay: inhibited ECM-CABP (ECMC) complex, reactivation by CbbQO activase, coupled spectrophotometric rubisco assay; type: biochemical; conditions: 20 mM NaHCO3, Mg2+, 25 °C; PEG 3350; active site, tight-binding transition-state analog
T1 construct: gene cbbL1; recombinant E. coli BL21(DE3); large and small subunits; anion exchange and size exclusion

[2] = molecular target: T2, AfL2S2 (form IA^C carboxysomal rubisco) (Acidithiobacillus ferrooxidans, UniProt B7JB30, V471A/N472H/R473K); assay: as above; type: biochemical; conditions: 20 mM NaHCO3, Mg2+, 25 °C; PEG 3350; active site, tight-binding transition-state analog; printed as VNR C terminus substituted with AHK
T2 construct: gene cbbL1; recombinant E. coli BL21(DE3); large and small subunits; anion exchange and size exclusion

[3] = molecular target: T3, HnLS (form IA^C carboxysomal rubisco) (Halothiobacillus neapolitanus, UniProt O85040); assay: as above; type: biochemical; conditions: 20 mM NaHCO3, Mg2+, 25 °C; PEG 3350; active site, tight-binding transition-state analog
T3 construct: gene cbbL; recombinant E. coli BL21(DE3), pET30bHnLS (NdeI/HindIII); large and small subunits; anion exchange and size exclusion

[4] = molecular target: T4, AfL2S2 (form IA^C carboxysomal rubisco) (Acidithiobacillus ferrooxidans, UniProt B7JB30, N472H); assay: as above; type: biochemical; conditions: 20 mM NaHCO3, Mg2+, 25 °C; PEG 3350; active site, tight-binding transition-state analog
T4 construct: gene cbbL1; recombinant E. coli BL21(DE3); large and small subunits; anion exchange and size exclusion

[5] = molecular target: T5, AfQ3O3 (carboxysomal CbbQO rubisco activase) (Acidithiobacillus ferrooxidans, UniProt B7JB17); assay: ATPase, coupled spectrophotometric assay; type: biochemical; conditions: 0.27 µM oligomer, 25 °C
T5 construct: gene p30; recombinant E. coli BL21(DE3), pHue and pBad33 (ubiquitin-type) vectors; CbbQ hexamer with CbbO; with CbbO protein (von Willebrand factor A domain, rubisco activase adaptor)

[6] = molecular target: T6, AfQ1O1 (form IA^Q-associated CbbQO rubisco activase) (Acidithiobacillus ferrooxidans, UniProt B7JA26); assay: ATPase, coupled spectrophotometric assay; type: biochemical; conditions: 0.27 µM oligomer, 25 °C
T6 construct: gene cbbQ-1; recombinant E. coli BL21(DE3), pHueAfCbbQ1 and pBad33UbAfcbbO1; CbbQ hexamer with CbbO; with CbbO protein (von Willebrand factor A domain, rubisco activase adaptor)
T6 sequence (B7JA26 1-267): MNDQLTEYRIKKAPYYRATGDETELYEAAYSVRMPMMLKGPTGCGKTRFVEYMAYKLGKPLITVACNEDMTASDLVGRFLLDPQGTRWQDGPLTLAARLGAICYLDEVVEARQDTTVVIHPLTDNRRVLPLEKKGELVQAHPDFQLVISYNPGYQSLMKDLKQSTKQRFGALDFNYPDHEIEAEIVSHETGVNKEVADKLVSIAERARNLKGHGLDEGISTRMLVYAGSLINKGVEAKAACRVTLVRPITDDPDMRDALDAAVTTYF
T6 sequence (B7JA27 1-772 partner): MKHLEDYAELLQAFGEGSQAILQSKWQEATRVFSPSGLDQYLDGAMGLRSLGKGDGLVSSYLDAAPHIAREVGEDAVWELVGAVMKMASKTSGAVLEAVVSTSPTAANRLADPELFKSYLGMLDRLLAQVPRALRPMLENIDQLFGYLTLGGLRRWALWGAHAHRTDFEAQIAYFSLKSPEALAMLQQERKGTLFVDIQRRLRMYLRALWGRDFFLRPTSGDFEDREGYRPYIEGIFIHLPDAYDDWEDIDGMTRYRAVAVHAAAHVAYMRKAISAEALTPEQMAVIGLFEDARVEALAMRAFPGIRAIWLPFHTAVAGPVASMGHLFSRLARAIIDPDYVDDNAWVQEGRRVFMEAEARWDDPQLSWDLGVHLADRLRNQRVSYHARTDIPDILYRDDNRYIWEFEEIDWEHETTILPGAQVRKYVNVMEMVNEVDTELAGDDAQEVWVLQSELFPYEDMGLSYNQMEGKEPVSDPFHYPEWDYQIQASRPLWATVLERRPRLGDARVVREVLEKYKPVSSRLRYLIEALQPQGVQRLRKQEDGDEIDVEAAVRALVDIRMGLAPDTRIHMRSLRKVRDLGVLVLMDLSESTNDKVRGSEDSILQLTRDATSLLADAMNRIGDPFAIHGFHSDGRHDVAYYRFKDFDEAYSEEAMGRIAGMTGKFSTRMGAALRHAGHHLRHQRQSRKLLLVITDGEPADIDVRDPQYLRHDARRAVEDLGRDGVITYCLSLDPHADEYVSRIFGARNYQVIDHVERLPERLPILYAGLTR

[7] = molecular target: T7, AfL1S1 (form IA^Q rubisco) (Acidithiobacillus ferrooxidans, UniProt B7JA24); assay: RuBP release rate from apo-rubisco-RuBP (ER) complex, carboxylation time course; type: biochemical; conditions: apoenzyme with 0.4 mM RuBP; assay 50 mM NaHCO3, 1 mM RuBP, 25 °C; active site
T7 construct: gene cbbL2; recombinant E. coli BL21(DE3); large and small subunits; anion exchange and size exclusion

[8] = molecular target: T4, AfL2S2 (form IA^C carboxysomal rubisco); assay: spontaneous RuBP release from ER complex; type: biochemical; conditions: apoenzyme with RuBP; 25 °C; active site
[9] = molecular target: T2, AfL2S2 (form IA^C carboxysomal rubisco); assay: spontaneous RuBP release from ER complex; type: biochemical; conditions: apoenzyme with RuBP; 25 °C; active site; printed as VNR C terminus substituted with AHK
[10] = molecular target: T1, AfL2S2 (form IA^C carboxysomal rubisco); assay: RuBP release rate from apo-rubisco-RuBP (ER) complex, carboxylation time course; type: biochemical; conditions: apoenzyme with 0.4 mM RuBP; assay 50 mM NaHCO3, 1 mM RuBP, 25 °C; active site
[11] = molecular target: T3, HnLS (form IA^C carboxysomal rubisco); assay: as above; type: biochemical; conditions: apoenzyme with 0.4 mM RuBP; assay 50 mM NaHCO3, 1 mM RuBP, 25 °C; active site
[12] = molecular target: T8, SynLS (form IB rubisco) (Synechococcus elongatus, UniProt P00880); assay: as above; type: biochemical; conditions: apoenzyme with 0.4 mM RuBP; assay 50 mM NaHCO3, 1 mM RuBP, 25 °C; active site
T8 construct: gene cbbL; large and small subunits

[13] = molecular target: A. ferrooxidans carboxysomal form IA^C rubisco with the last three residues of the large subunit changed from VNR to AHK (Acidithiobacillus ferrooxidans ATCC23270)
[14] = molecular target: A. ferrooxidans carboxysomal form IA^C rubisco with N472H in the large subunit (Acidithiobacillus ferrooxidans ATCC23270)
[15] = molecular target: A. ferrooxidans carboxysomal form IA^C rubisco with the last three residues of the large subunit changed from VNR to AHK (Acidithiobacillus ferrooxidans ATCC23270); remark: listed apart in the source
[16] = molecular target: A. ferrooxidans carboxysomal form IA^C rubisco with N472H in the large subunit (Acidithiobacillus ferrooxidans ATCC23270); remark: listed apart in the source

T3 sequence (O85040 whole entry): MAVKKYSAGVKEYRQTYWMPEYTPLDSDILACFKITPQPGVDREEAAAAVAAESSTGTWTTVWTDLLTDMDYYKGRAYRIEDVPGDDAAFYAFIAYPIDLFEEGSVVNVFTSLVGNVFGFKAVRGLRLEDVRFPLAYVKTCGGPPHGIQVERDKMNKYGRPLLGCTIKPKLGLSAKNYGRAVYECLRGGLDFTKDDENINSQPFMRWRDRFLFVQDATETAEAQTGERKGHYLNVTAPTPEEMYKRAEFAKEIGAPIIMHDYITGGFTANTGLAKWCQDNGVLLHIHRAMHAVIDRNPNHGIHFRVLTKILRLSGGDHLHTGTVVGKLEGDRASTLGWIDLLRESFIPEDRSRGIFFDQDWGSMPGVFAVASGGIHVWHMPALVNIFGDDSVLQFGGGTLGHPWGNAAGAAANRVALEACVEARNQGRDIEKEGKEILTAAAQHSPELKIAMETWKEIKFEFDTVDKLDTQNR
T3 sequence (P45686 whole entry partner): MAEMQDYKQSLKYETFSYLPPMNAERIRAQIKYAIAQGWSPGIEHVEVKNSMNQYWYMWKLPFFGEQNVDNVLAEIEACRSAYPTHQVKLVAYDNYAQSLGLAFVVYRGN
T2 sequence (B7JB30 whole entry V471A/N472H/R473K): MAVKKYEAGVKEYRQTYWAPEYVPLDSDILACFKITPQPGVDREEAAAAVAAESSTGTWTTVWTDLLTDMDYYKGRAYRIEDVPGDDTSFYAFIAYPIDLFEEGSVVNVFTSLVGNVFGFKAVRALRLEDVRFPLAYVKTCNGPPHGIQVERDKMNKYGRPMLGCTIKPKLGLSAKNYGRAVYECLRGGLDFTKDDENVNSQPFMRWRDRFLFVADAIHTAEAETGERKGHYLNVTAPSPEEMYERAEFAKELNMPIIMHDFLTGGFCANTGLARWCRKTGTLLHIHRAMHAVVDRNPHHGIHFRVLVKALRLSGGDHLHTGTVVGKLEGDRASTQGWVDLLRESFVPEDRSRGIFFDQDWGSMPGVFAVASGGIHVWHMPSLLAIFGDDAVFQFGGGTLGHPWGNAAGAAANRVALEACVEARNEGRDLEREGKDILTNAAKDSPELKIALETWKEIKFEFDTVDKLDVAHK
T2 sequence (B7JB29 entry or part of it, stated change not applied, further chain): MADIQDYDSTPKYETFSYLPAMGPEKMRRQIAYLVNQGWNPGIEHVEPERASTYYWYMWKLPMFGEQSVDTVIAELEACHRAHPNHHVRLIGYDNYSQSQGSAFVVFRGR
T1 sequence (B7JB30 whole entry): as the sequence (B7JB30 whole entry V471A/N472H/R473K) above, with A471V, H472N, K473R counted along it
T1 sequence (B7JB29 1-110 partner): as the sequence (B7JB29 entry or part of it, stated change not applied, further chain) above
T4 sequence (B7JB30 whole entry N472H): as the sequence (B7JB30 whole entry V471A/N472H/R473K) above, with A471V, K473R counted along it
T4 sequence (B7JB29 entry or part of it, stated change not applied, further chain): as the sequence (B7JB29 entry or part of it, stated change not applied, further chain) above
T7 sequence (B7JA24 whole entry): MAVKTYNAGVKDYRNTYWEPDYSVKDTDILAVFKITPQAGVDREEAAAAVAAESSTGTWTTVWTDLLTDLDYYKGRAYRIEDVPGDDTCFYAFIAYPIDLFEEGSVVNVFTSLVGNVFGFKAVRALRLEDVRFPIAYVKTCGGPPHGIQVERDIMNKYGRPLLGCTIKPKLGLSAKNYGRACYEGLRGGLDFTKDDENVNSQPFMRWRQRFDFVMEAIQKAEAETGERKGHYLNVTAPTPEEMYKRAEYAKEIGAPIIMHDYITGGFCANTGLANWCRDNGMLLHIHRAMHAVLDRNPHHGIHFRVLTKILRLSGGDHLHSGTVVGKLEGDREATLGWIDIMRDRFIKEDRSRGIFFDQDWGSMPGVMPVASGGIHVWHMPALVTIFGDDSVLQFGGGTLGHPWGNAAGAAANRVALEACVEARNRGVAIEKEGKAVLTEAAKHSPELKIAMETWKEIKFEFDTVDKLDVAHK
T7 sequence (B7JA25 1-118 partner): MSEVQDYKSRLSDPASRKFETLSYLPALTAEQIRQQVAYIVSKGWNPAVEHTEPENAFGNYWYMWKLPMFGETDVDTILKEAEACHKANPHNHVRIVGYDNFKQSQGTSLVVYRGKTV
T5 sequence (B7JB16 entry or part of it): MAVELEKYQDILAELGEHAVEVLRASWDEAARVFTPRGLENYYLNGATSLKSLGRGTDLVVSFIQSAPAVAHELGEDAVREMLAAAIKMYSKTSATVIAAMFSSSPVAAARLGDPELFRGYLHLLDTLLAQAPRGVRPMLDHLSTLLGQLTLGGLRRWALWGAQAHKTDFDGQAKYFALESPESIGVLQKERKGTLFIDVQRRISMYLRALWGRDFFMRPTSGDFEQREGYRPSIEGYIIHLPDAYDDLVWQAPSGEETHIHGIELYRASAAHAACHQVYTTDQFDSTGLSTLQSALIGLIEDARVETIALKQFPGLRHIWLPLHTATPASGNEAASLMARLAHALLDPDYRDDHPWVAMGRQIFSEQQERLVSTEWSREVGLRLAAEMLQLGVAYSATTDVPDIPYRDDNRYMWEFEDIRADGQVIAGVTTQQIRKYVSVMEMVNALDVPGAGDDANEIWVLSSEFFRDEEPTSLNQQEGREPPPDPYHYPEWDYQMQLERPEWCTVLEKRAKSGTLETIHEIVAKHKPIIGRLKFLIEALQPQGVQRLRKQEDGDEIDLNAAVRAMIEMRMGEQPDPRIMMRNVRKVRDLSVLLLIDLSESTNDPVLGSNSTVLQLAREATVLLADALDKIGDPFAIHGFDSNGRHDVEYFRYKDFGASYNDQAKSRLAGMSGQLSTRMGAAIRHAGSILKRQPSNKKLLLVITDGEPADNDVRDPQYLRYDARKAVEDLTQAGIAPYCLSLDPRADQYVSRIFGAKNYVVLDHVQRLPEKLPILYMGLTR
T5 sequence (B7JB17 entry or part of it): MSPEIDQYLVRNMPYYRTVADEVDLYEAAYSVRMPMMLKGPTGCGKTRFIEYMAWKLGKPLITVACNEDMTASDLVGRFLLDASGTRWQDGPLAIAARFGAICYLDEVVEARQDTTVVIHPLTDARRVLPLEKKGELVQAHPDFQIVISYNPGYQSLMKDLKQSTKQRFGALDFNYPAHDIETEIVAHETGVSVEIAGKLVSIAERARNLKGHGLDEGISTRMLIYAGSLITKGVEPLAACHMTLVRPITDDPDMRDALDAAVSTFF

Molecule: O=C(O)[C@@](O)(COP(=O)(O)O)[C@H](O)[C@H](O)COP(=O)(O)O (mixture of isomers) [carboxy-arabinitol 1,5-bisphosphate]
- inhibited ECM-CABP (ECMC) complex, reactivation by CbbQO activase, coupled spect [1]: ability to remove the transition state analog CABP from the A. ferrooxidans form IA^C (AfL2S2) holoenzyme
- inhibited ECM-CABP (ECMC) complex, reactivation by CbbQO activase, coupled spect [2]: mutation at the C terminus of AfL2S2 enhances activation of ECMC complexes by Q1O1
- inhibited ECM-CABP (ECMC) complex, reactivation by CbbQO activase, coupled spect [3]: HnQO was able to remove CABP from its cognate form IA^C rubisco HnLS
- inhibited ECM-CABP (ECMC) complex, reactivation by CbbQO activase, coupled spect [4]: mutation at the C terminus of AfL2S2 enhances activation of ECMC complexes by Q1O1

Molecule: Nc1ncnc2c1ncn2[C@@H]1O[C@H](COP(=O)(O)OP(=O)(O)OP(=O)(O)O)[C@@H](O)[C@H]1O [ATP]
- ATPase, coupled spectrophotometric assay [5]: The ATPase activity of the purified AfQ3O3 complex was similar to that of the AfQ1O1
- ATPase, coupled spectrophotometric assay [6]: The ATPase activity of the purified AfQ3O3 complex was similar to that of the AfQ1O1

Molecule: O=C(COP(=O)(O)O)[C@H](O)[C@H](O)COP(=O)(O)O [ribulose 1,5-bisphosphate]
- RuBP release rate [7]: (AfL1S1) formed a stable binary complex with RuBP and had the slowest inhibitor release rate
- spontaneous RuBP release from ER complex [8]: displayed similar carboxylation kinetics and spontaneous RuBP release under our assay conditions
- spontaneous RuBP release from ER complex [9]: displayed similar carboxylation kinetics and spontaneous RuBP release under our assay conditions
- RuBP release rate [10]: The RuBP release rate was derived from the ER time courses
- RuBP release rate [11]: The RuBP release rate was derived from the ER time courses
- RuBP release rate [12]: the very loose RuBP-binding phenotype of the cyanobacterial form IB SynLS rubisco

Molecule: A. ferrooxidans CbbQ1-CbbO1 rubisco activase complex (form IA^Q associated)
- Rca activity: activation of CABP-inhibited rubisco (ECMC), coupled spectrophotometric rubisco assay, 5% v/v PEG, 20 mM NaHCO3; against wildtype AfL2S2 [13]: 6 fold
- Rca activity: activation of CABP-inhibited rubisco (ECMC), coupled spectrophotometric rubisco assay, 5% v/v PEG, 20 mM NaHCO3; against wildtype AfL2S2 [14]: 6 fold

Molecule: A. ferrooxidans CbbQ3-CbbO3 rubisco activase complex (carboxysomal, form IA^C associated)
- Rca activity: activation of CABP-inhibited rubisco (ECMC), coupled spectrophotometric rubisco assay, 13% v/v PEG, 20 mM NaHCO3; against wildtype AfL2S2 [15]: 60 % reduction
- Rca activity: activation of CABP-inhibited rubisco (ECMC), coupled spectrophotometric rubisco assay, 13% v/v PEG, 20 mM NaHCO3; against wildtype AfL2S2 [16]: 30 % increase
